Laboratory results reported in US20070134185A1, “Use of dithiols in a hair-perming composition” (priority 2003, published 2007).

Legend:
[1] = Permanent waving of hair locks with reducing lotion; conditions: reducing lotion 20.83 g Compound A1 per 100 g, pH = 7, 15 minutes on curled hair, fixing with hydrogen peroxide at 8 volumes pH=3
Experimental: A reducing lotion is prepared:
The above lotion is applied to locks of grey hair which is 90% white. Curls are produced using curlers. The lotion is allowed to act on the curled hair for 15 minutes. The hair is rinsed with water. A conventional fixing composition based on hydrogen peroxide (hydrogen peroxide at 8 volumes, pH=3), is applied. Another rinsing is carried out. The curlers are removed.

[2] = Oxidation dyeing of permanently waved hair; conditions: compared with identical permanent waving with thioglycolic acid instead of A1, at equivalent curliness
[3] = cited from earlier work

SMILES: CN(C(=O)CS)N(C)C(=O)CS [Compound A1]
- curliness [1]: Good curliness
- colour after 7.44 CRESCENDO oxidation dye on permanently waved hair [2]: closer to that obtained on non-permanently waved hair

SMILES: O=S(=O)(CCS)CCS [BMS, bis(2-mercaptoethyl)sulphone]
- solubility in water [3]: very sparingly soluble in water
